These results are taken from publication PMC8815882, “Screening the pandemic response box identified benzimidazole carbamates, Olorofim and ravuconazole as promising drug candidates for the treatment of eumycetoma” (PLoS Neglected Tropical Diseases, 2022).

The subject of the test is M. mycetomatis genome strain MM55. The test can be described thus: CLSI M38-A2 based in vitro susceptibility screening (XTT or resazurin), growth at fixed concentration. In kind it is cell-based, Madurella mycetomatis. As to conditions: Madurella mycetomatis; for Percent fungal survival at 100 µM: read-out: Percentage survival at 100um, 100 uM A (second replicate column). A general note: Tetrazolium dyes change colour on reduction, which living cells bring about.

[1] abbreviates: mean of three, M. mycetomatis MM55, read-out: Percentage survival at 25um, 25 uM mean.
[2] abbreviates: replicate A, M. mycetomatis MM55, read-out: Percentage survival at 25um, 25 um A.
[3] abbreviates: replicate B, M. mycetomatis MM55, read-out: Percentage survival at 25um, 25 uM B.
The mark [4] stands for this setting: replicate C, M. mycetomatis MM55, read-out: Percentage survival at 25um, 25 uM C.
[5] abbreviates: mean of three, M. mycetomatis MM55, read-out: Percentage survival at 100um, 100 uM mean.
Setting [6] is: replicate 1, M. mycetomatis MM55, read-out: Percentage survival at 100um, 100 uM A (first replicate column).
Where [7] appears, read: replicate 2, M. mycetomatis MM55.
The mark [8] stands for this setting: replicate 3, M. mycetomatis MM55, read-out: Percentage survival at 100um, 100 uM A (third replicate column).
Setting [9] is: mean, read-out: Percentage survival at 25um, 25 uM mean.
[10] abbreviates: replicate A, read-out: Percentage survival at 25um, 25 um A.
Where [11] appears, read: replicate B, read-out: Percentage survival at 25um, 25 uM B.
The mark [12] stands for this setting: replicate C, read-out: Percentage survival at 25um, 25 uM C.
The mark [13] stands for this setting: mean, read-out: Percentage survival at 100um, 100 uM mean.
[14] abbreviates: replicate (first column), read-out: Percentage survival at 100um, 100 uM A.
Setting [15] is: replicate (second column), read-out: Percentage survival at 100um, 100 uM A.
The mark [16] stands for this setting: replicate (third column), read-out: Percentage survival at 100um, 100 uM A.
The mark [17] stands for this setting: mean of replicates, MM55, read-out: Percentage survival at 25um, 25 uM mean.
Setting [18] is: replicate A, MM55, read-out: Percentage survival at 25um, 25 um A.
[19] abbreviates: replicate B, MM55, read-out: Percentage survival at 25um, 25 uM B.
Setting [20] is: replicate C, MM55, read-out: Percentage survival at 25um, 25 uM C.
[21] abbreviates: mean of replicates, MM55, read-out: Percentage survival at 100um, 100 uM mean.
Setting [22] is: replicate 1, MM55, read-out: Percentage survival at 100um, 100 uM A.
[23] abbreviates: replicate 2, MM55, read-out: Percentage survival at 100um, 100 uM A.
The mark [24] stands for this setting: replicate 3, MM55, read-out: Percentage survival at 100um, 100 uM A.
Setting [25] is: mean of three replicates, read-out: Percentage survival at 25um, 25 uM mean.
Setting [26] is: first replicate column, read-out: Percentage survival at 100um, 100 uM A.
[27] abbreviates: mean of three replicates, read-out: Percentage survival at 100um, 100 uM mean.
Where [28] appears, read: second replicate column, read-out: Percentage survival at 100um, 100 uM A.
The mark [29] stands for this setting: third replicate column, read-out: Percentage survival at 100um, 100 uM A.
[30] abbreviates: mean of replicates, read-out: Percentage survival at 25um, 25 uM mean.
Where [31] appears, read: mean of replicates, read-out: Percentage survival at 100um, 100 uM mean.
Where [32] appears, read: replicate 1, read-out: Percentage survival at 100um, 100 uM A.
Where [33] appears, read: replicate 2, read-out: Percentage survival at 100um, 100 uM A.
The mark [34] stands for this setting: replicate 3, read-out: Percentage survival at 100um, 100 uM A.
[35] abbreviates: replicate 1, read-out: Percentage survival at 100um, 100 uM A (first replicate column).
[36] abbreviates: replicate 3, read-out: Percentage survival at 100um, 100 uM A (third replicate column).

Each structure is given as a SMILES string. Like-named read-outs stand apart in the source and are kept apart here.

As for `CCCCCCCc1[nH]c2ccccc2c(=O)c1O` [MMV1578561], the activity at 25 µM is 76.2% under setting [1], 76.9% under setting [2], 79.7% under setting [3] and 71.9% under setting [4]. The activity at 100 µM under setting [5] is 72.1%, the activity at 100 µM under setting [6] is 73.7% and the activity at 100 µM under setting [8] came to 73.2%. In addition, the Percent fungal survival at 100 µM under setting [7] was 69.3%.

Turning to `CONC(=N)c1ccc(-c2ccc(-c3ccc(C(=N)NOC)cc3)o2)cc1` [MMV000059], the activity at 25 µM came out at 84.9% under setting [9], 94.2% under setting [10], 81% under setting [11] and 79.4% under setting [12]. The activity at 100 µM by setting is: under setting [13], 95.8%; under setting [14], 101%; under setting [15], 92%; under setting [16], 94.6%.

Consider `O=C(NC(=O)N1CCCc2ccccc21)c1cccc(Cl)c1` [MMV1782351], for which the activity at 25 µM is 92% under setting [9], 96.8% under setting [10], 101% under setting [11] and 78.3% under setting [12]. Moreover, the activity at 100 µM is 75.7% under setting [13], 73.9% under setting [14], 74.5% under setting [15] and 78.6% under setting [16].

As to `CN(C)c1[nH]c(=O)ncc1F` [MMV1782223], the activity at 25 µM turned out to be 93% under setting [9], 97% under setting [10], 101% under setting [11] and 80.9% under setting [12]. The activity at 100 µM by setting is: under setting [13], 82.8%; under setting [14], 84%; under setting [15], 75.3%; under setting [16], 88.9%.

For `CC1(C)Cc2c(C#N)c(SCCc3ccccc3)nc(N3CCOCC3)c2CO1` [MMV1549626], the activity at 25 µM by setting is: under setting [1], 62.3%; under setting [2], 67.7%; under setting [3], 59.1%; under setting [4], 60.3%. Also, the activity at 100 µM by setting is: under setting [5], 87.3%; under setting [6], 92.1%; under setting [8], 65.1%. Besides, under setting [7], the Percent fungal survival at 100 µM turned out to be 105%.

In the case of `CC(C)Nc1nc2cc(Cl)c(Cl)cc2n1[C@H]1O[C@@H](CO)[C@H](O)[C@@H]1O` [MMV1593521], the activity at 25 µM is 93.6% under setting [17], 104% under setting [18], 89.6% under setting [19] and 87% under setting [20]. The activity at 100 µM under setting [21] is 81.8%, the activity at 100 µM under setting [22] was determined as 90.8%, the activity at 100 µM under setting [23] worked out at 82% and the activity at 100 µM under setting [24] is 72.5%.

Take `O=c1[nH]c(=O)n(Cc2cccc(Oc3ccccc3)c2)cc1Nc1ccccc1` [MMV1782107]: the activity at 25 µM under setting [25] is 91.7%, the activity at 25 µM under setting [10] turned out to be 75.5%, the activity at 25 µM under setting [11] came to 83.9% and the activity at 25 µM under setting [12] was 116%. Moreover, the activity at 100 µM under setting [26] was 90.6%, the activity at 100 µM under setting [27] stood at 71.8%, the activity at 100 µM under setting [28] is 77.9% and the activity at 100 µM under setting [29] amounted to 47.1%.

With `NC(=S)N/N=C/c1ncccc1N` [MMV1580496], the activity at 25 µM was found to be 67.8% under setting [17], 65.1% under setting [18], 79% under setting [19] and 59.3% under setting [20]. The activity at 100 µM runs as follows: under setting [21], 44.6%; under setting [22], 65.1%; under setting [23], 56.6%; under setting [24], 12%.

`C=CCN(C(=O)OCc1ccc([N+](=O)[O-])cc1)C1CCN(CC[C@](C)(CN(C)S(=O)(=O)c2ccccc2)c2ccccc2)CC1` [MMV1782214]: the activity at 25 µM runs as follows: under setting [17], 69.4%; under setting [18], 79.7%; under setting [19], 66.7%; under setting [20], 61.9%. The activity at 100 µM by setting is: under setting [21], 62.1%; under setting [22], 55.9%; under setting [23], 76.9%; under setting [24], 53.4%.

In the case of `O=C(c1cc(O)nc2ccccc12)N1CCN(c2ccccc2)CC1` [MMV596723], the activity at 25 µM runs as follows: under setting [25], 81.5%; under setting [10], 85.3%; under setting [11], 92.8%; under setting [12], 66.3%. Also, the activity at 100 µM came to 83.7% under setting [26], 79.5% under setting [27], 80.5% under setting [28] and 74.4% under setting [29].

For `CC(C)Nc1ncnc2c1cnn2-c1ccc(Cl)cc1` [MMV108465], the activity at 25 µM is, setting by setting: under setting [30], 63.1%; under setting [10], 53.4%; under setting [11], 64.9%; under setting [12], 71.1%. The activity at 100 µM under setting [31] stood at 22.2%, the activity at 100 µM under setting [32] came out at 0.471%, the activity at 100 µM under setting [33] was found to be 1.77% and the activity at 100 µM under setting [34] stood at 64.4%.

In the case of `CC(C)Cn1c(=O)n(C)c(=O)c2c(-c3cncn3C)n(Cc3cccc4ccccc34)nc21` [MMV1581559], the activity at 25 µM is, setting by setting: under setting [25], 58.5%; under setting [10], 82.8%; under setting [11], 69.9%; under setting [12], 22.7%. The activity at 100 µM reads like this: under setting [27], 3.57%; under setting [35], 1.05%; under setting [36], 3.94%. In addition, the Percent fungal survival at 100 µM (replicate 2) stood at 5.73%.

In the case of `COc1ccc(COc2cc3oc(=O)c4cc(C(C)O)ccc4c3cc2OC)cc1` (centres unmarked) [MMV1580799], the activity at 25 µM runs as follows: under setting [25], 95.8%; under setting [10], 100%; under setting [11], 103%; under setting [12], 84.1%. Further, the activity at 100 µM under setting [26] was determined as 90.3%, the activity at 100 µM under setting [27] turned out to be 91.5%, the activity at 100 µM under setting [28] came out at 87.1% and the activity at 100 µM under setting [29] amounted to 97%.

With `NC(=O)c1[nH]c2ccc(S(N)(=O)=O)cc2c1-c1ccccc1` [MMV1581556], the activity at 25 µM under setting [25] worked out at 72.4%, the activity at 25 µM under setting [10] was 70.3%, the activity at 25 µM under setting [11] was determined as 68.8% and the activity at 25 µM under setting [12] came to 78.1%. Moreover, the activity at 100 µM reads like this: under setting [27], 70.1%; under setting [35], 77.5%; under setting [36], 64.9%. Besides, the Percent fungal survival at 100 µM (replicate 2) worked out at 68%.

In the case of `Cc1cccc(CC(=O)N[C@H]2CCOC2=O)c1` [MMV1579782], the activity at 25 µM came to 94% under setting [30], 95.3% under setting [10], 93.9% under setting [11] and 92.9% under setting [12]. Also, the activity at 100 µM turned out to be 90.9% under setting [31], 95.1% under setting [32], 88.4% under setting [33] and 89.2% under setting [34].

For `Cc1cccc(C)c1C(=O)Nc1nc(-c2ccccn2)cc2ccccc12` [MMV1581558], the activity at 25 µM was determined as 77.1% under setting [25], 65% under setting [10], 114% under setting [11] and 52.4% under setting [12]. Moreover, the activity at 100 µM was 86% under setting [27], 76.1% under setting [35] and 118% under setting [36]. Moreover, the Percent fungal survival at 100 µM (replicate 2) was 64.3%.
